Patent US9840627B2, “Application of camptothecin and derivatives thereof as antifouling agent” (priority 2013, dated 2017)
Like-named read-outs stand apart in the source and are kept apart here.

Columns and labels:
Type in all cases: in vivo
[1] = test system: cypris larvas of Balanus albicostatus; test: Inhibitory effect on the attachment of barnacles (cypris larvas); settings: 48 h, membrane filtrated seawater
Source text: Barnacles are sessile Cirripedia with calcareous shells and widespread. They firmly attach to the surfaces of vessels and various offshore artificial facilities, and are one of the major marine fouling organisms as well as one of the major target organisms in the study of antifouling technology. Adults of Balanus albicostatus were collected from the rocks and piers at Baicheng Coast in Xiamen, and their cypris larvas were obtained by culturing in laboratory. It is the attachment of the cypris larvas that causes the barnacles to change from swimming life to attaching life. Thus, inhibition of the attachment of the cypris larvas can verify the antifouling activity of the compounds. CPT and 10-hydroxyl-CPT were dissolved in ethyl acetate respectively, and a series of concentration gradient were set according to the results of pre-experiment. 1 ml of each solution was taken to a petri dish respectively, 1 ml of ethyl acetate was taken to another blank petri dish serving as control group. After the solvents evaporated completely and the compounds were distributed evenly on the bottom surfaces and the side surfaces of the petri dishes, each petri dish was added with 10 ml of membrane filtrated seawater (filtrated by membrane with pore size of 0.22 μm, the same below). […]

[2] = test system: larvas of Bugula neritina; test: Inhibitory effect on the attachment of Bugula larvas; settings: 48 h, membrane filtrated seawater
Source text: Bugulas are marine bryozoan and widespread in various sea areas in the world. They often attach to the surfaces of marine artificial facilities like mariculture netting, cages, vessels, buoys, etc., and they are important marine fouling organisms as well. Bugula neritina, also called multicellular Bugula, its adults were collected from the fish culture net bins in Western sea area of Xiamen and put into an aquarium filled with fresh seawater after back to the laboratory to induce the release of their swimming larvas. It is the attachment of their swimming larvas that causes the Bugulas to change from swimming life to attaching life. Thus, inhibition of the attachment of the swimming larvas can verify the antifouling activity of the compounds. CPT and 10-hydroxyl-CPT were dissolved in ethyl acetate respectively, and a series of concentration gradient were set according to the results of pre-experiment. 1 ml of each solution was taken to a petri dish respectively; 1 ml of ethyl acetate was taken to another blank petri dish serving as control group. After the solvents evaporated completely and the compounds were distributed evenly on the bottom surfaces and the side surfaces of the petri dishes, each petri dish was added with 10 ml of membrane filtrated seawater. […]

Perna viridis = test: Inhibitory effect on the attachment of mussels by produced byssal threads; settings: 24 h culture at room temperature
Source text: Mussels are common bivalve in marine fouling biocenoses, widespread, and are one of the major target organisms in the study of marine antifouling technology. Mussels explore surfaces by their feet, looking for attachment substrate. If proper surfaces for attaching were found, mussels would produce byssal threads to attach to them. […] Perna viridis were collected from the fish net bins in offshore sea area of Zhangzhou, and in which those with shell length of 1.4˜2.4 cm were selected and washed with seawater, followed by gent cut-off of the byssal threads. And then the Perna viridis were washed with membrane filtrated seawater. CPT were first dissolved in a trace of dimethyl sulfoxide, and then mixed with membrane filtrated seawater to prepare a series of concentration gradient. 4 ml of each solution was taken into a 12-well plate, and each well was added with one Perna viridis. 4 ml of membrane filtrated seawater containing a trace of dimethyl sulfoxide and one Perna viridis were added into the control group. Each experimental group and control group had 8 paralleled groups. After 24-hours culture at room temperature, the amount of byssal threads produced by Perna viridis were observed, and the half inhibition concentration of CPT for the attachment of Perna viridis by produced byssal threads, EC50, were determined.

[3] = test system: marine large fouling organisms; settings: for coverage ratio of fouling organisms (%, Mean ± SE): antifouling agent 20% by weight in paint, panels in sea area, Xiamen
Experimental: The panel test in natural sea area was carried out referring to the national standard GB/T5370-2007 “Method for testing antifouling panels in shallow submergence”. […] The tested panels were fixed in iron frames after the paints had dried, and they were hanged on the test buoyant rafts in the sea area near Dalipu Island in Xiamen in June, 2010. After the tested panels had been immersed in seawater up to 3, 6, 9 and 12 months, they were then photographed, and the coverage ratios of the fouling organisms in each coated sample areas were analyzed and counted. Herein, the coverage ratio of the fouling organisms is the ratio of surface area covered by marine large fouling organisms in the sample area divided by the whole surface area in the sample area (the same below), and the lower the value is, the higher the antifouling efficiency will be.

Row | SMILES | half inhibition concentration (EC50) for the attachment of cypris larvas of Balanus albicostatus [1] | EC50 for the attachment of larvas of Bugula neritina [2] | EC50 for the attachment of Perna viridis by produced byssal threads (Perna viridis) | coverage ratio of fouling organisms (%, Mean ± SE) ([3]; after 3 months) | coverage ratio of fouling organisms (%, Mean ± SE) ([3]; after 6 months) | coverage ratio of fouling organisms (%, Mean ± SE) ([3]; after 9 months) | coverage ratio of fouling organisms (%, Mean ± SE) ([3]; after 12 months) | antifouling term ([3]; paints prepared with CPT as antifouling agent, panel test in sea area)
1 | CC[C@@]1(O)C(=O)OCc2c1cc1n(c2=O)Cc2cc3cc(O)ccc3nc2-1 [10-hydroxyl-CPT] | 1.78 µg/mL | 5.93 µg/mL | – | – | – | – | – | –
2 | CC[C@@]1(O)C(=O)OCc2c1cc1n(c2=O)Cc2cc3ccccc3nc2-1 [CPT, Camptothecin (CPT)] | 1.73 µg/mL | 15.02 µg/mL | 10.78 µg/mL | 0.15 ± 0.12% | 11.6 ± 6.68% | 9.03 ± 2.64% | 39.67 ± 10.43% | up to 12 months
3 | [Cu].[O]=[Cu] [Cu2O, cuprous oxide, reference compound] | – | – | – | 7.23 ± 2.02% | 91.75 ± 2.90% | 70.91 ± 13.40% | 98.88 ± 0.48% | –
